Data published in patent US20050182128A1, “Use of anethole dithiolethione in lung cancer chemoprevention” (priority 2002, published 2005).
“Also recorded” adds a separate entry of the source. Marks after values point to notes of the source that are not given here.

Columns and labels:
lipid peroxidation = settings: in-vitro, rat liver microsome model; cited from earlier work
[1] = Phase IIb trial: adverse events and toxicity monitoring; type: in vivo, human
Description: Follow Up. The participants were seen monthly for examination of drug related adverse events. Liver enzymes were measured at baseline and at months 3 and 6 for toxicity monitoring. Fluorescence bronchoscopy was repeated after 6 months of study medication. The bronchoscopist was blinded to the intervention assignment. All previously biopsied sites were identified and re-biopsied under fluorescence bronchoscopy. Biopsy was also taken from new areas with abnormal fluorescence.

[2] = test system: intracellular glutathione; settings: animals pretreated with various toxins and normal animals; cited from earlier work
aflatoxin tumorigenicity = settings: rats; cited from earlier work
[3] = test system: glutathione-S-transferase (GST); settings: rat model of hepatoma; p<0.01; cited from earlier work
[4] = 25 mg three times daily; cited from earlier work
human Jurkat cells = settings: pretreatment of human Jurkat cells; cited from earlier work
bronchial dysplasia = assay: Phase IIb trial: nuclear morphometry index (MI) of bronchial biopsies; type: in vivo, human
Text: The primary outcome of the study was changes in the histopathology grade of the bronchial biopsies before and after six months of intervention. The secondary endpoint was changes in the nuclear morphometry index of the bronchial biopsies.
The method of quantitative nuclear morphometry had been described in detail previously (Lam et al., 1998; Doudkine et al., 1995; Garner et al., 1994). […] Morphometric measurements provide a more objective and reproducible means for the grading of bronchial biopsies than subjective assessment does. The device used to make these high-resolution quantitative morphometric measurements was a Cyto-Savant™ system (Lam et al., 1998; Doudkine et al., 1995; Garner et al., 1994). The images were interactively collected by an experienced cytotechnologist under the direction of a pathologist (JCL). The images were collected using a 20x objective with a numerical aperture of 0.75. Analysis of the nuclei in each tissue consisted of five steps 1) focusing the field of view, 2) automatically segmenting the nuclei in the field, 3) interactively correcting segmentation errors, 4) selecting and classifying the cell nuclei into the categories of basal, intermediate or superficial cells depending or their location within the biopsy where possible, and 5) automatically collecting individually focused images of each selected cell. Additionally, approximately 30 leukocytes were collected to normalize the images for sample to sample variations in staining intensity. On the average, greater than 100 cell nuclei were collected in this fashion for each of the biopsies. Using bulk nuclear features such as the total area and the total amount of light absorbed (which corresponds to the amount of DNA), shape features and descriptions of the distribution of stained DNA (texture features) (Doudkine et al., 1995), a scale was defined with normal nuclei defining one end and cancer-like nuclei defining the other. From the proportion of nuclei along this scale, a Morphometry Index (MI) was derived for each biopsy (Lam et al., 1998).
For quantitative nuclear morphometry, the median MI for histologically normal biopsies was 1.25. The inter-observer variation of measuring the MI was such that a change in MI greater than 0.11 (>2SD) was taken to be a significant change. For the lesion specific analysis, CR was defined as regression of a lesion with a MI of >1.36 to ≦1.36. PD was defined as increase in the MI from ≦1.36 to >1.36. On a participant by participant basis, CR was defined as regression of all sites with MI>1.36 to ≦1.36. PD was defined as progression of any site similar to that defined under the site by site analysis or appearance of new lesions with a MI of >1.36.
Descriptive statistics were used to summarize subject characteristics, and pathologic evaluations of the bronchial biopsy examinations. Comparison between treatment arms was done with the Mann-Whitney test for continuous variables such as age, smoking intensity (pack-years) and MI. Pearson's χ^2 test with continuity correction was used to compare categorical variables such as gender, smoking status (current versus former smokers) and response rates (progression and regression) in the two arms. Fisher's exact test was applied to the lower partial response and stable disease rates. All P values are two-sided. A two-sided P value of less than 0.05 was considered statistically significant.

nuclear factor NFκB = settings: human Jurkat cells; cited from earlier work

## COc1ccc(-c2cc(=S)ss2)cc1 [ADT, 5-(p-methoxyphenyl)-1,2-dithiole-3-thione]
Lipid peroxidation
  Inhibition of lipid peroxidation: potent inhibitor of lipid peroxidation
[1]; 25 mg orally TID, six months
  Adverse events, overall description: mostly minor gastrointestinal symptoms that resolved with dose reduction or discontinuation of the medication; also recorded: only adverse events observed were gastrointestinal
[1]; P=0.018
  Symptoms significantly more frequent than with placebo: Only abdominal bloating was significantly more frequent
[1]; of 56
  Subjects with dose reduced to 25 mg BID: 17
  Subjects with dose reduced to 25 mg QD: 4
[1]; placebo 0%
  Constipation: 5%
[1]; placebo 4%
  Increased Saliva: 2%
[1]; placebo 4%, P = 0.01 compared to placebo
  Abdominal Bloating: 25%*
[1]; placebo 6%
  Participants with Grade 3 symptoms: 11%
[1]; placebo 8%
  Loose Stool: 16%
[1]; placebo 12%
  Diarrhea: 13%
[1]; placebo 20%
  Participants with Grade 2 symptoms: 51%
[1]; placebo 25%
  Participants requiring dose reduction: 45%
[1]; placebo 53%
  Excessive Flatus: 93%
[1]; returned to normal after discontinuation
  Grade 3 elevation of liver enzymes: One of the participants
[2]
  Intracellular glutathione: increase of intracellular glutathione
Aflatoxin tumorigenicity
  Protection against aflatoxin tumorigenicity: protective action against aflatoxin tumorigenicity
[3]
  Mean GST levels in the liver: statistically increased
[4]
  Safety and efficacy at therapeutic dose: safe and effective
Human Jurkat cells
  Protection against oxidative stress-induced cytotoxicity: significantly protects cells
Bronchial dysplasia; 6 months
  PR rate, subject specific analysis, nuclear morphometry: 3%
Bronchial dysplasia; baseline MI >1.36, of 38
  Biopsies with MI >1.36 at 6 months: 9
  Biopsies with MI ≦1.36 at 6 months: 29
Bronchial dysplasia; baseline MI >1.36 to ≦1.36 at 6 months, placebo 63%, P=0.37
  CR rate, lesion specific analysis, nuclear morphometry: 76%
Bronchial dysplasia; baseline MI ≦1.36, of 112
  Biopsies with MI >1.36 at 6 months: 27
  Biopsies with MI ≦1.36 at 6 months: 85
Bronchial dysplasia; baseline MI ≦1.36 to >1.36 at 6 months, placebo 33%, P=0.22
  PD rate, lesion specific analysis, nuclear morphometry: 24%
Bronchial dysplasia; of 29
  CR, number of subjects, nuclear morphometry: 13
  PD, number of subjects, nuclear morphometry: 12
  PR, number of subjects, nuclear morphometry: 1
Bronchial dysplasia; participants with MI>1.36 pre-treatment, placebo 60%, P=0.28
  PD rate, person specific analysis, nuclear morphometry: 41%
Bronchial dysplasia; person specific, 41% versus 60%
  PD rate lower than placebo, nuclear morphometry: 19%
Bronchial dysplasia; person specific, 45% versus 24%
  CR rate higher than placebo, nuclear morphometry: 21%
Bronchial dysplasia; placebo 24%, p=0.19
  CR rate, person specific analysis, nuclear morphometry: 45%
Bronchial dysplasia; total, of 150
  Biopsies with MI >1.36 at 6 months: 36
  Biopsies with MI ≦1.36 at 6 months: 114
Nuclear factor NFκB
  Modulation of NFκB activation: capable of modulating
